These results are taken from US9751919B2, “Antimicrobial compositions comprising a hyaluronic acid binding peptide and a β-lactam antibiotic” (priority 2012, dated 2017).

In one assay the test system is P. aeruginosa. Description: Checkerboard assay (FIC index). Type of assay: cell-based, Pseudomonas aeruginosa. As to conditions: antibiotic combined with PEP35. How it is done:
(§1) The checkerboard assays were carried out as described by Eliopoulos and Moellering (Chapter 9) in Antibiotic in Laboratory Medicine, Lorian Ed. 1996 as well as Bonapace et al. Diagnostic Microbiology and Infectious Diseases 2002; 44:363-366 and Bonapace et al. Diagnostic Microbiology and Infectious Diseases 2000; 38:43-50. In brief, checkerboard assays were performed in 96 well microtitre trays using an 8-by-8 well configuration. […] 96-well custom designed microtitre plates contained 100 ul/well of cation adjusted Mueller-Hinton broth (eg. for Enterobacteriaceae) with or without lysed horse blood (2-5% V/V) [eg. for S. pneumoniae] and were inoculated to achieve a final concentration of approximately 5×10^5 CFU/ml and incubated in ambient air for 24 hours prior to reading. Colony counts were performed periodically to confirm inocula. Quality control was performed every two weeks using a variety of ATCC QC organisms including; S. pneumoniae 49619, S. aureus 29213, E. faecalis 29212, E. coli 25922 and P. aeruginosa 27853. For all antimicrobials as well as PEP35, CLSI criteria was used.
(§2) The fractional inhibitory concentration index (FIC index) was used to interpret synergy, antagonism or additivity/indifference. FIC index=FIC of drug A+FIC of drug B where:
(§3) The FIC of drug A and drug B is calculated as follows, FIC drug A=MIC of drug A in combination/MIC of drug A alone and FIC of drug B=MIC of drug B in combination/MIC of drug B alone. Synergy is defined as FIC index ≦0.5, additivity/indifference FIC >0.5-4 and antagonism FIC index >4.
(§4) Antimicrobials used included PEP35, cefazolin, ceftriaxone, vancomycin, linezolid, tigecycline and daptomycin versus Gram-positive cocci and PEP35, gentamicin, levofloxacin, piperacillin/tazobactam, meropenem and colistin (Polymyxin E) versus Gram-negative bacilli. These agents were obtained as laboratory grade powders from their respective manufacturers. Stock solutions were prepared and dilutions made as described by the Clinical Laboratory Standards Institute (2005 CLSI).
(§5) Organisms included Gram-positive cocci (2 strains of each): Methicillin-susceptible Staphylococcus aureus (MSSA), community-associated (CA) and healthcare-associated (HA) methicillin-resistant Staphylococcus aureus (MRSA), vancomycin-intermediate Staphylococcus aureus (VISA), vancomycin-resistant Staphylococcus aureus (VRSA), methicillin-resistant Staphylococcus epidermidis (MRSE), Streptococcus pyogenes, Streptococcus agalactiae, Streptococcus pneumoniae, Enterococcus faecalis, Enterococcus faecium and vancomycin-resistant enterococcus (VRE). Gram-negative bacilli tested (2 strains of each) included: E. coli, Pseudomonas aeruginosa, Klebsiella pneumoniae, K. oxytoca, Enterobacter cloacae, P. mirabilis and Stenotrophomonas maltophilia. MIC testing, following two subcultures from frozen stock were determined by the CLSI 2005 approved broth microdilution method.

In the next assay the test system is K. oxytoca. The assay is described as follows: Checkerboard assay (FIC index). Type of assay: cell-based, Klebsiella oxytoca. As to conditions: antibiotic combined with PEP35. The protocol:
as §1, §2, §3, §4, §5

Another assay relates to E. cloacae. Description: Checkerboard assay (FIC index). Type of assay: cell-based, Enterobacter cloacae. The note with it: antibiotic combined with PEP35. The protocol: as §1, §2, §3, §4, §5
Another assay has as its system P. mirabilis. Description: Checkerboard assay (FIC index). As to conditions: antibiotic combined with PEP35. The assay is classed as cell-based, Proteus mirabilis. The protocol: as §1, §2, §3, §4, §5
For a further assay, the system named is S. maltophilia. The assay is described as follows: Checkerboard assay (FIC index). The assay is classed as cell-based, Stenotrophomonas maltophilia. As to conditions: antibiotic combined with PEP35. How it is done: as §1, §2, §3, §4, §5
For assay [1], the system named is MRSA, VISA, VRSA and E. coli. The assay is described as follows: Checkerboard assay, panel statement. Type of assay: cell-based. How it is done:
Checkerboard assays were carried out as described by Bonapace et al.
as §1, with “Diagnostic” for “The checkerboard assays were carried out as described by Eliopoulos and Moellering (Chapter 9) in Antibiotic in Laboratory Medicine, Lorian Ed. 1996 as well as Bonapace et al. Diagnostic”, “2002; 44:363-366.” for “2002; 44:363-366 and Bonapace et al. Diagnostic Microbiology and Infectious Diseases 2000; 38:43-50.”, “27853. […] All peptides were assessed for synergy with β-lactams and vancomycin.” for “27853.”, “as the peptides,” for “as PEP35,”, “criteria were” for “criteria was”
as §2
The FIC of drug A and drug B was calculated as follows, FIC drug A=MIC of drug A in combination/MIC of drug A alone and FIC of drug B=MIC of drug B in combination/MIC of drug B alone. Synergy was defined as FIC index ≦0.5, additivity/indifference defined as a FIC between 0.5 and 4 and antagonism defined as an FIC index >4.
The fractional inhibitory concentration index (FIC index) was used to interpret synergy, antagonism or additivity/indifference. FIC index=FIC of drug A+FIC of drug B where the FIC of drug A and drug B was calculated as follows, FIC drug A=MIC of drug A in combination/MIC of drug A alone and FIC of drug B=MIC of drug B in combination/MIC of drug B alone. Synergy was defined as FIC index ≦0.5, additivity/indifference defined as an FIC of between 0.5 and 4 and antagonism defined as an FIC index >4.

A further assay has as its system Gram-negative bacilli. The assay is described as follows: Checkerboard assay, panel statement. Type of assay: cell-based. The note with it: with gentamicin, levofloxacin, piperacillin-tazobactam, meropenem and colistin; all Gram-negative bacilli tested. How it is done: as §1, §2, §3, §4
as §5, with “Gram-negative bacilli tested (2 strains of each) included: E. coli, Pseudomonas aeruginosa, Klebsiella pneumoniae, K. oxytoca, Enterobacter cloacae, P. mirabilis and Stenotrophomonas maltophilia.” left out

The test system of the next assay is Gram-positive cocci. The assay is described as follows: Checkerboard assay, panel statement. The assay is classed as cell-based. How it is done: as §1, §2, §3, §4
as §5, with “Gram-negative bacilli tested (2 strains of each) included: E. coli, Pseudomonas aeruginosa, Klebsiella pneumoniae, K. oxytoca, Enterobacter cloacae, P. mirabilis and Stenotrophomonas maltophilia.” left out

Where [2] appears, read: with cefazolin and ceftriaxone, versus CA-MRSA, HA-MRSA, VISA and VRSA.
Setting [3] is: with meropenem versus CA-MRSA, HA-MRSA, and VISA.

Entries after “also recorded” stand apart in the source; their conditions may differ. Marks after values point to notes of the source that are not given here. Where only a bound is given, the exact number is not on record here.

In the case of `C[C@@H](O)[C@H]1C(=O)N2C(C(=O)O)=C(S[C@@H]3CN[C@H](C(=O)N(C)C)C3)[C@H](C)[C@H]12` [Meropenem], the “Avg ΣFIC (range)” value is 1.21 (1.03-1.5) with P. aeruginosa (P. aeruginosa 70849); 1.10 (1.0-1.25) in the assay with P. aeruginosa (P. aeruginosa 71841); 1.1 (1.0-1.25) in the assay on K. oxytoca (K. oxytoca 75316); 0.80 (0.53-1.12) in the assay with K. oxytoca (K. oxytoca 76874); 1.32 (1.03-2.12) in the assay with E. cloacae (E. cloacae 80194); 1.05 (0.75-1.25) in the assay on E. cloacae (E. cloacae 83128). In addition, the “Avg ΣFIC (range)” value in the assay on P. mirabilis (P. mirabilis 80267) is listed as >1*; in the assay on P. mirabilis (P. mirabilis 81569), >1*; in the assay with S. maltophilia (S. maltophilia 73062) it was 0.77 (0.5-1.03); with S. maltophilia (S. maltophilia 77424) it was 1.05 (0.75-1.25).
Take “KKKKKLQLQLNLIKKKVQVSVVVVRRH (Reordered human peptide sequence) [Scrambled PEP35]”: the “synergy (in words)” value in assay [1] (setting [2]) and in assay [1] (setting [3]) was “synergistic effect” in each case.
In the case of “LKQKIKHVVKLKVVVKLRSQLVKRKQN (listed as Mus sp.) [PEP35]”, the “synergy (in words)” value in assay [1] (setting [2]) and in assay [1] (setting [3]) was “synergistic effect” in each case. For the same compound, the “interaction (in words)” value in the assay on Gram-negative bacilli is listed as “did not demonstrate antagonism or synergy; also recorded: additive”; in the assay with Gram-positive cocci (with cefazolin and ceftriaxone, CA-MRSA and HA-MRSA) it was “synergistic”; in the assay with Gram-positive cocci (with the six antibiotics, all streptococci, staphylococci and enterococci except CA-MRSA and HA-MRSA) it was “additive”. In addition, in the assay on Gram-positive cocci (with cefazolin, ceftriaxone, daptomycin, linezolid, tigecycline and vancomycin, any streptococci, staphylococci and enterococci tested), the “antagonism (in words)” value was “did not demonstrate antagonism”.
In the case of piperacillin/tazobactam, the “Avg ΣFIC (range)” value in the assay with P. aeruginosa (P. aeruginosa 70849) was 0.92 (0.62-1.12); with P. aeruginosa (P. aeruginosa 71841), 0.88 (0.56-1.12); in the assay with K. oxytoca (K. oxytoca 75316) it was 0.93 (0.62-1.12); in the assay with K. oxytoca (K. oxytoca 76874) it was 0.83 (0.53-1.12); in the assay on E. cloacae (E. cloacae 80194) it was 0.79 (0.5-1.06); in the assay with E. cloacae (E. cloacae 83128), 0.71 (0.37-1.06). For the same compound, the “Avg ΣFIC (range)” value is >0.5* in the assay with P. mirabilis (P. mirabilis 80267), >0.5* in the assay on P. mirabilis (P. mirabilis 81569), 0.98 (0.62-1.25) in the assay with S. maltophilia (S. maltophilia 73062) and 1.04 (0.75-1.25) in the assay on S. maltophilia (S. maltophilia 77424).
